Laboratory results: publication PMC10283052, “Intranasal delivery of mitochondrial protein humanin rescues cell death and promotes mitochondrial function in Parkinson's disease” (Theranostics, 2023)

Columns and labels:
[1] = system: midbrain dopaminergic neurons from embryonic mouse; assay: HN-induced intracellular humanin expression, western blot, primary neurons; format: cell-based; conditions: HN treatment 24 h (1 μM in Fig 2A), basal humanin undetectable
Experimental: (§1) Primary mesencephalic cell cultures were prepared using gestational day 13.5 embryos from C57BL/6J mice, as previously described. The mesencephalon was dissected from the embryos and dissociated in a medium containing 0.25% trypsin-EDTA and 0.05% DNase in PBS for 15 min at 37 °C. Tissue samples were mechanically dissociated by gentle pipetting using Pasteur pipettes. After centrifugation at 400 x g for 5 min, the cells were plated in Neurobasal-A medium (Thermo Fisher Scientific, Waltham, MA, USA) supplemented with 2% B27 supplement (Thermo Fisher Scientific), 1× Glutamax (Thermo Fisher Scientific), 5% fetal bovine serum (FBS), 0.36% D-glucose, and 1% Penicillin/Streptomycin (P/S) in poly-L-ornithine/laminin (Sigma-Aldrich)-coated plates. On day 4 in vitro (DIV), the plating medium was replaced, and the neurons were used on DIV 8 for subsequent experiments.
For HN treatment of cells, HN stock solution was first incubated at 37 ℃ with mild stirring for 0.5 h. The solution was then added to the culture medium to achieve a desirable final concentration as described above.
Mouse brain tissue samples and cells were homogenized in radioimmunoprecipitation assay (RIPA) buffer (Cell Signaling, Danvers, MA, USA) in the presence of a protease and phosphatase inhibitor cocktail (Thermo Fisher Scientific). […] The results were analyzed using the ImageJ densitometry system. […]

[2] = system: Murine primary dopaminergic neurons; assay: MPP+ toxicity in primary dopaminergic neurons (MTT, neurite analysis); format: cell-based, mouse
Experimental: as §1
Following treatment with the aforementioned reagents, the cells were washed and treated with 3-(4,5-dimethylthiazol-2-yl)-2,5-diphenyl-tetrazolium bromide (MTT, Thermo Fisher Scientific). Briefly, the cells were seeded in a 96-well plate at a density of 5 × 10^3 cells/well. After 24 h, a neurotoxin 1-methyl-4-phenylpyridinium (MPP^+) (Sigma-Aldrich) was applied to induce toxicity in neuronal cells. Next, the cells were incubated with MTT for 4 h, and formazan crystals were solubilized using DMSO. Absorbance was measured using a multi-plate reader at a wavelength of 570 nm, and the viability of the cells was recorded as a percentage of the control.

SH-SY5Y cells [3] = assay: Real-time qPCR of genes of mitochondrial function; format: cell-based, human; conditions: HN 20 μM, 24 h
Experimental: For real-time qPCR, total RNA was extracted using TRIzol reagent (Thermo Fisher Scientific). cDNA was synthesized using a cDNA synthesis kit (Bioneer Corporation), according to the manufacturer's protocol. The mRNA levels were analyzed in a LightCycler 96 (Roche, Basel, Switzerland) using SYBR Green I master mix and SensiFAST™ SYBR® No-ROX Kit (Bioline, Paris, France). B2M (beta-2-microglobulin) gene expression was used to normalize gene expression data. The primer sequences used in this experiment are in Table S2.

SH-SY5Y cells [4] = assay: Mitochondrial membrane potential (TMRM) and mitochondrial ROS (MitoSOX); format: cell-based, human
Experimental: The SH-SY5Y cells were cultured in 96-well plates for 24 h before treatment. At the indicated time points, the cellular medium was removed, and the cells were washed with PBS. Mitochondrial ROS levels were measured using MitoSOX Red (Thermo Fisher Scientific) as described previously. The cells were counterstained using Hoechst 33342 (Sigma-Aldrich). Fluorescence intensity was quantified using a Synergy H1 multimode microplate reader (BioTek, Winooski, VT, USA) according to the manufacturer's protocol.
The cells were seeded in 96-well plates and treated as described above. To analyze the mitochondrial membrane potential, TMRM (Thermo Fisher Scientific) was used according to the manufacturer's instructions. The cells were counterstained using Hoechst 33342 (Sigma-Aldrich). Fluorescence intensity was assessed using a Synergy H1 multimode microplate reader or an LSR Fortessa cytometer at the Neuroscience Translational Research Solution Center.

[5] = HN pre-treatment 12 h, then MPP+ 100 μM 24 h, dose-dependent

Substance: humanin (MAPRGFSCLLLLTSEIDLPVKRRA; Humanin; UniProt Q8IVG9 1-24, looked up) [HN, mitochondria-derived peptide encoded by the mitochondrial genome, synthesized by Fmoc-based SPPS at GL Biochem]
- intracellular humanin expression [1]: induced its intracellular expression in a dose-dependent manner
- neurite number ([2]; HN 1 μM versus DMSO): increased neurite number
- neurite loss induced by MPP+ [2, 5]: rescued the neurite loss and neuronal death
- neuronal death induced by MPP+ (viability, MTT) [2, 5]: rescued the neurite loss and neuronal death
- average length of all sprouting neurites per neuron ([2]; HN-treated versus DMSO-treated neurons, slightly higher): not statistically significant
- transcript levels of mitochondrial biogenesis (PGC-1α, NRF1, ESRRA) and oxidative phosphorylation (SDHA, ATP5F1A, ATP5F1D) genes (SH-SY5Y cells [3]): significant increase
- expression of fatty acid metabolism and TCA cycle genes (SH-SY5Y cells [3]; ACC2, ACLY, FASN, IDH3A): a significant alteration was not observed
- FCCP-induced mitochondrial depolarization (SH-SY5Y cells [4]; HN pre-treatment 24 h, 20 μM, FCCP 5 μM, 15 min, flow cytometry): effective in restoring
- mitochondrial membrane potential (TMRM) (SH-SY5Y cells [4]; HN pre-treatment before MPP+, flow cytometry, normalized to Hoechst 33342): effectively inhibited reduction in mitochondrial potential
- mitochondrial ROS production (MitoSOX) (SH-SY5Y cells [4]; HN pre-treatment before MPP+, normalized to Hoechst 33342): effectively inhibited
